A short description of series [1]: cells. Type of series: functional, cell-based.
Series [2] is described as follows: cells. Type of series: functional, cell-based. This is another data set of the same source.
The target of series [3] is T1, Short transient receptor potential channel 4 (Mus musculus, UniProt Q9QUQ5).
T1 sequence (Q9QUQ5 whole entry): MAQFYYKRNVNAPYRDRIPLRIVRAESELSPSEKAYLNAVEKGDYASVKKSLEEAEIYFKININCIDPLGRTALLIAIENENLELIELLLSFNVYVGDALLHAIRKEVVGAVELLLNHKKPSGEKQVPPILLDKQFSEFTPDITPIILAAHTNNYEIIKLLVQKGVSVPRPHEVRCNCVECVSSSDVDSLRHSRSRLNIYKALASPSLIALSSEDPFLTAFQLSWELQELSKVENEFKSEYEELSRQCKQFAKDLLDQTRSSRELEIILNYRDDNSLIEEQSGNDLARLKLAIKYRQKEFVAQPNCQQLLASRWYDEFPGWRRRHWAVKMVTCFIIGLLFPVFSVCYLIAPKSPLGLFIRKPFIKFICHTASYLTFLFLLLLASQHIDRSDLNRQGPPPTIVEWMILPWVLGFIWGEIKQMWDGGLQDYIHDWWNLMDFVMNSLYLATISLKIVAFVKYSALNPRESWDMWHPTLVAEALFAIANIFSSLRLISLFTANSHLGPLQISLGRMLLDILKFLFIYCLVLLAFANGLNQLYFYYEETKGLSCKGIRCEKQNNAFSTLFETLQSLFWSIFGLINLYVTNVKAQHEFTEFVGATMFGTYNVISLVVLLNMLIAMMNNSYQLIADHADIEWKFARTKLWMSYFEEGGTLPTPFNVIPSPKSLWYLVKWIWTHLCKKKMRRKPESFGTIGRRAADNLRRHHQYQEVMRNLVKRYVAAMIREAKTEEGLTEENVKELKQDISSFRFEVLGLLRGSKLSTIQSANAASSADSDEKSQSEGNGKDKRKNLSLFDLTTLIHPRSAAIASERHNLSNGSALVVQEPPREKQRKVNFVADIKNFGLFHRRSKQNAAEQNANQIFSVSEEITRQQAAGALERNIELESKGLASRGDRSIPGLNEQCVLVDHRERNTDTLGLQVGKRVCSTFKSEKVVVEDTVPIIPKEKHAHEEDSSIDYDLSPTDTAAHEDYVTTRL
Put plainly: mouse TRPC4 channel inhibitors, dose response, cell-based, HEK293 TRPC4/mu-opioid, Fluo-4 calcium (AID 434942).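 Further: potency of inhibitors blocking the TRPC4 calcium response.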 Type of series: functional.

Series [4] addresses T2, RNA-binding protein pos-1 (Caenorhabditis elegans, UniProt G5EF15).
T2 sequence (G5EF15 whole entry): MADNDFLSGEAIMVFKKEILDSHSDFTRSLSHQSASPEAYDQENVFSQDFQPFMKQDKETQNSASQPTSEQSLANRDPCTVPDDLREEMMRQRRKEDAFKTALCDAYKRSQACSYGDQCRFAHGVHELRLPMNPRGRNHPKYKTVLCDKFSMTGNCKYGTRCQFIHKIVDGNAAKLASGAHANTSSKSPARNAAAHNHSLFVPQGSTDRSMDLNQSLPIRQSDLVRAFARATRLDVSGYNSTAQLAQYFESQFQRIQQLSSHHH
Put plainly: inhibitors of POS-1/mex-3 RNA binding, dose response, biochemical, fluorescence polarization (AID 1964).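 Further: purified POS-1 fused to maltose binding protein made in E. coli; potency of compounds blocking POS-1 binding to fluorescent RNA.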

Series [5] has as its target T3, Zinc finger protein mex-5 (Caenorhabditis elegans, UniProt Q9XUB2).
T3 sequence (Q9XUB2 whole entry): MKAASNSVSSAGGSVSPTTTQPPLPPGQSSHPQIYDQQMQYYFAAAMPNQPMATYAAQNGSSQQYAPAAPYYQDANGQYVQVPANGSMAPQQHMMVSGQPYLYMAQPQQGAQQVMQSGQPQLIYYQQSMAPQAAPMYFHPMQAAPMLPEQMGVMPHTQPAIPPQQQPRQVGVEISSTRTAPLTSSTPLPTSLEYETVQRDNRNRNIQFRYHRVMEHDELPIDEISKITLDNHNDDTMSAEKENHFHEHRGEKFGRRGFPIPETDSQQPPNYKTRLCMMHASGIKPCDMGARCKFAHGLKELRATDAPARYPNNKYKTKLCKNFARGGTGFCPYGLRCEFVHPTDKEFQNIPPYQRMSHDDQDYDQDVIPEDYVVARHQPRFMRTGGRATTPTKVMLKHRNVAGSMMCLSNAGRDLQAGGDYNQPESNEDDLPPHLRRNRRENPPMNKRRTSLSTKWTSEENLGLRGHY
Description: MEX-5/TCR-2 RNA interaction inhibitors, dose response, biochemical, C. elegans, fluorescence polarization (AID 1960). On the technique in general: Fluorescence polarisation rises when a labelled molecule tumbles more slowly, as on binding a larger partner.

Series [6] is described as follows: Luminescence Cell-Based Dose Confirmation HTS to Identify Activators of 5'UTR Stem-Loop Driven Alpha-Synuclein mRNA Translation in H4 Neuroglioblastoma Cells. [Related pubchem assays: 1829 (Project Summary), 1814 (Primary HTS)]. In kind it is functional.
Series [7] is described as follows: Luminescence Cell-Based Dose Response HTS to Identify Activators of Luciferase Translation or Activity in H4 […] Cells. [Related pubchem assays: 1829 (Project Summary), 1814 (Primary HTS)]. In kind it is functional.
Another series deals with H4. Description: Luminescence Cell-Based Dose Response HTS to Identify Activators of 5'UTR Stem-Loop Driven Prion Protein mRNA Translation in H4 Neuroglioblastoma Cells. [Related pubchem assays: 1829 (Project Summary), 1814 (Primary HTS)]. Conditions: Homo sapiens. Type of series: functional.
For a further series, the target named is T4, Protein skinhead-1 (Caenorhabditis elegans, UniProt P34707).
T4 sequence (P34707 whole entry): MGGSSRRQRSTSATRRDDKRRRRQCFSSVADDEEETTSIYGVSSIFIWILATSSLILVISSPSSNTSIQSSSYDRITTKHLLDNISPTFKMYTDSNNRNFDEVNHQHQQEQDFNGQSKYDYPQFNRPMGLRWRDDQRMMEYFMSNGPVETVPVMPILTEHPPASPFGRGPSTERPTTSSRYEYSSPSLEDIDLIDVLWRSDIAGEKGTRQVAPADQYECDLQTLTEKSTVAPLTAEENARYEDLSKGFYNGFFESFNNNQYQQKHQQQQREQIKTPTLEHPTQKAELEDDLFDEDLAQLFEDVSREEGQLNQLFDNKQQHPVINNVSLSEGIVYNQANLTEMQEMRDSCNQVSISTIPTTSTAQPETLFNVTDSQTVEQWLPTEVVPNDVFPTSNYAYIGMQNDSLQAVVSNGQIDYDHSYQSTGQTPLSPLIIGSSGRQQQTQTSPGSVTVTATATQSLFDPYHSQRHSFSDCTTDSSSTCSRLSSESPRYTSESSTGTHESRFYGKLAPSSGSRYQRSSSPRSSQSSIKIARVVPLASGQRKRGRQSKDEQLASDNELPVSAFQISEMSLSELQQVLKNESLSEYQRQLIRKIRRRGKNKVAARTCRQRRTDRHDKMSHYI
Type of series: functional.

Another series addresses Cytochrome P450 2C9 (Homo sapiens, UniProt P11712).
The target of the next series is Large T antigen (Simian virus 40, UniProt P03070). Type of series: functional, Betapolyomavirus macacae.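 Further: Confirmatory-stage PubChem screen for compounds that inhibit SV40 T antigen.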
A short description of series [8]: inhibitors of HIV Env-driven cell fusion, dose response, cherry-pick (AID 652057). Type of series: functional, cell-based.
In a further series the test system is H9c2. Description: cells. Type of series: functional, cell-based. As to conditions: Rattus norvegicus, H9c2, Myocardium.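 Further: confirmatory concentration-response retest of ultra-high-throughput screening hits for modulation of myocardial damage; cell death induced by hydrogen peroxide oxidative stress; compound pretreatment for 60 min then peroxide exposure for 2 h; potency is for protecting the cells against peroxide damage rather than for killing them.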
Series [9] can be described thus: control 3'UTR Renilla luciferase suppression, dose response, counter-screen for Shn3 inhibitor project, cell-based, Clone20-Shn3RL, cherry-picked (AID 624133). In kind it is functional. Background: Counterscreens check selectivity or assay interference.
A short description of series [10]: HepG2 cell cytotoxicity, dose response, cytotoxicity control for Shn3 inhibitor project, CellTiter-Glo, cherry-picked (AID 624134). Type of series: functional, cell-based.
A short description of series [11]: Shn3 3'UTR reporter inhibitors, dose response, cell-based, Clone20 osteoblasts, firefly luciferase, cherry-picked (AID 624132).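 Further: firefly luciferase luminescence from reporter carrying the Shn3 3'UTR in osteoblasts.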 Type of series: functional.

Molecules are shown by their SMILES. Active and inactive are the calls of the source.

Chain of Cytochrome P450 2C9 (P11712 whole entry): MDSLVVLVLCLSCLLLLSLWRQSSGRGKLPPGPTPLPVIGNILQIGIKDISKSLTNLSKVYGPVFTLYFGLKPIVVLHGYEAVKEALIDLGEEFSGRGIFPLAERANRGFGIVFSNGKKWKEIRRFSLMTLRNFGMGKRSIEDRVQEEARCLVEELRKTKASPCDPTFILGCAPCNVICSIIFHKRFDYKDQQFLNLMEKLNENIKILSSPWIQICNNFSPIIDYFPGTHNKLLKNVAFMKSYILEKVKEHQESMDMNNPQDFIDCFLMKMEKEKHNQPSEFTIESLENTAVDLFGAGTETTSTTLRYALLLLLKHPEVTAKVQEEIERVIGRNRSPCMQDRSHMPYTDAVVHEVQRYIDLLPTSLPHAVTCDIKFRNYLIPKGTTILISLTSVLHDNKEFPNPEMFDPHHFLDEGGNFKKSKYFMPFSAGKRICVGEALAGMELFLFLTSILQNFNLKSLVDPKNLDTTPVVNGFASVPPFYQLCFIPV
Chain of Large T antigen (P03070 whole entry, the tested form may be a part): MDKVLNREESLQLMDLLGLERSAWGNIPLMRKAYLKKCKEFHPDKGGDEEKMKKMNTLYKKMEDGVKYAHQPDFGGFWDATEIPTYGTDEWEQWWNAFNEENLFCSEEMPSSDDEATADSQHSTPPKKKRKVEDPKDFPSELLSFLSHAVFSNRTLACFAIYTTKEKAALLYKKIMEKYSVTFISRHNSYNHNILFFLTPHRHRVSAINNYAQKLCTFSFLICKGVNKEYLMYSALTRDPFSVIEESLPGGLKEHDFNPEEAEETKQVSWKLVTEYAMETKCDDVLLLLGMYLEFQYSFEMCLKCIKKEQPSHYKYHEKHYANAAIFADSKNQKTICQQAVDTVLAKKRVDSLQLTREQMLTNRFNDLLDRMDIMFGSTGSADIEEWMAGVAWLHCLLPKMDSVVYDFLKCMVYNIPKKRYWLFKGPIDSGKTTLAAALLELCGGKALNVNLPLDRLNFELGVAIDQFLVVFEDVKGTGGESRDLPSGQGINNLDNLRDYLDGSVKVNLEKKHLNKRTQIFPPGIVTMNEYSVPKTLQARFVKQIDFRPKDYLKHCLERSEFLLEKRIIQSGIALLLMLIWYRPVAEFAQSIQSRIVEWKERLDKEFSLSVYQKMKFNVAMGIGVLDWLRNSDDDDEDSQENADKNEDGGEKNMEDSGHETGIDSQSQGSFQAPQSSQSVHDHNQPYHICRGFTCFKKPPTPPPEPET

The term EC50 denotes the midpoint of the concentration-response curve. Consider `Cc1ccc(Cl)cc1N1CCN(CC(O)COCc2ccco2)CC1` (stereo not given), for which the EC50 in “cells [1]” and in the series “cells [2]” was > 350 µM (not active) throughout. Turning to `CC(C)=CCN1CCN(Cc2cccc3nonc23)CC1CCO` (stereo not given), in series [3], the EC50 is 2.99 µM (active). `OC(C#Cc1ccccn1)c1cccs1` (stereo not given): the EC50 is 33.4 µM (active) in series [4] and 27.4 µM (inconclusive) in [5].

By IC50 is commonly meant the concentration needed to halve the response being measured. Consider `Cc1cc(CC(C)C)n(-c2nc3ccccc3c(=O)n2OCc2ccccc2)n1`, for which the EC50 in [6] is 6.96 µM (active); in [7] it was 13.5 µM (active); in series [4], > 300 µM (not active); in [5], > 300 µM (not active); with H4, > 120 µM (not active). Moreover, the IC50 at Protein skinhead-1 is > 100 µM (inactive). The term AC50 denotes the concentration giving half of the maximal activity seen. As to `COc1ccc(S(=O)(=O)N2CCc3ccccc3C2)cc1OC`, the AC50 entry on Cytochrome P450 2C9 was “inconclusive”. Consider `CN(C)c1ccc(NC(=O)CN2C3CCCC2CC(NC(=O)c2ccccc2)C3)cc1` (stereo not given), for which the IC50 on Large T antigen is 7.46 µM (active). In addition, the EC50 in series [3] is 3.35 µM (active). Turning to `CCCN1CN(Cc2ccco2)c2nc3ccccc3n2C1`, the EC50 in [3] was 1.88 µM (active). Turning to `CCCNC(=O)C[C@@H]1C[C@H]2c3cc(NC(=O)Cc4ccncc4)ccc3O[C@H]2[C@@H](CO)O1`, the AC50 in [8] is 55.2 µM (active).

As to `COCCn1c(SCc2cccc([N+](=O)[O-])c2)nc2ccccc2c1=O`, in series [3], the EC50 was 1.68 µM (active). In the case of `Cc1ccc2nc(SCC(=O)Nc3ccc(Br)cc3)nc(=O)n2c1`, the concentration for a half-maximal effect (EC50) in “cells [1]” and in “cells [2]” was > 350 µM (not active) each time. As for `COc1ccc(/C(O)=C/C=N/c2ccc([N+](=O)[O-])cc2C)c(OC)c1`, the EC50 in series [4] and in series [5] was > 300 µM (not active) each time. Turning to `CCSc1nc(NCCN(C)C)c2c3c(sc2n1)COC(C)(CC)C3` (stereo not given), the EC50 in the series “cells [1]” and in “cells [2]” was > 350 µM (not active) in each case. As to `COc1ccc(C(=O)Nc2cccc(-c3ccc4nncn4n3)c2)cc1`, the EC50 in the series “cells [1]” and in the series “cells [2]” was > 350 µM (not active) each time. Consider `COc1ccc(S(=O)(=O)NNC(=O)C(=O)NNc2ccccn2)cc1`, for which, in series [4], the EC50 is given as > 300 µM (not active).

With `O=C(COc1ccccc1[N+](=O)[O-])Nc1ccc(N2CCN(C(=O)c3cccs3)CC2)cc1`, in the series with H9c2, the IC50 was > 79 µM (inactive). On the same count and under the same terms, with `Cn1c2ccccc2c(=O)c2ccc(NCc3ccc4c(c3)OCO4)cc21` the figure was 15.2 µM (active); with `Cc1cnc(C=O)c2cccc([N+](=O)[O-])c12`, > 79 µM (inactive). Take `COC(=O)c1cc(-n2cccc2)ccc1N1CCOCC1`: the EC50 in [4] and in [5] was > 300 µM (not active) throughout. `O=C(Nc1ccc(F)cc1)N1CCN2C(=O)c3ccccc3C12c1ccccc1` (stereo not given): the EC50 in series [3] is 1.68 µM (active).

Turning to `CCN(Cc1ccccc1)C(=O)c1cc2c(=O)oc3ccc(C)cc3c2s1`, the IC50 with H9c2 was > 79 µM (inactive). With `Cc1ccc(C)c(OCC(=O)N2CCN(Cc3ccc4c(c3)OCO4)CC2)c1`, the EC50 in “cells [1]” and in the series “cells [2]” was > 350 µM (not active) in each case.

Turning to `CC(C)(C)NC(=O)c1cccc(NC(=O)c2ccc(NC(=O)c3ccco3)cc2)c1`, in the series on H9c2, the IC50 is > 79 µM (inactive). As to `Cc1ccc(N(CCC#N)C(=O)CSc2nc(O)c3ccccc3n2)cc1`, the IC50 with H9c2 is 35.4 µM (inactive).

For the compound `O=C(CCN1CCc2ccccc2C(O)(c2ccccc2)C1)c1ccc2c(c1)OCCO2` (stereo not given), in [3], the EC50 is 8.41 µM (active). For the same compound, the AC50 in [9] was 11.4 µM (active); in series [10] it was 63.3 µM (active); in [11], 23.1 µM (active). In the case of `COc1cc(OC)c(C2N(C)c3ccccc3N2C)cc1OC`, the EC50 in series [3] was 1.33 µM (active). In the case of `Cc1ccc(Cn2c(CCNc3nc(-c4ccc(Cl)c([N+](=O)[O-])c4)cs3)nc3cc(C(=O)NCCCO)ccc32)cc1`, the IC50 in the series with H9c2 is 47.7 µM (inactive). Consider `N#CC(C#N)=Cc1ccc(N2CCOCC2)cc1`, for which the EC50 in [4] is > 300 µM (inconclusive); in series [5] it was > 300 µM (not active). With `COc1cccc2c1OC[C@@H](CO)[C@H]2N(C)C(=O)Nc1ccc(Cl)cc1Cl`, at Cytochrome P450 2C9, the AC50 entry is reported as “inconclusive”. On to `CCN1C(=O)C(=Cc2ccc(N3CCOCC3)o2)C(=O)N(CC)C1=S`, for which the EC50 is > 300 µM (not active) in series [4] and > 300 µM (inconclusive) in series [5]. For `O=C1N=C(N2CCOCC2)S/C1=C\c1ccc(-c2ccccc2Cl)o1`, in that order: > 300 µM (not active) and > 300 µM (not active).

Source of the values: ChEMBL document CHEMBL1201862, “PubChem BioAssay data set” (2004).
